Test results: US20210277441A1, “METHOD OF SELECTING A POLYPEPTIDE OF INTEREST” (IMPERIAL COLLEGE INNOVATIONS LIMITED, priority 2018, published 2021)

Key:
[1] = target: Myxococcus stipitatus imine reductase (MsIRED) variant MsIRED-c (best previously described NADH-dependent variant, 5 residue substitutions) (Myxococcus stipitatus, UniProt L7U9F5); assay: Kinetics of MsIRED-c (best previously described NADH-dependent variant), 2-methylpyrroline reduction with NADH; format: biochemical; details: cofactor NADH (0.25 mM); enzyme 1.2675 uM
[2] = target: Enterobacter cloacae nitroreductase (EntNFSB) variant EntNFSB-s1, S40A/T41I/F124A, SEQ ID NO: 38 (Enterobacter cloacae, UniProt Q01234, F124A/S40A/T41I); assay: Kinetics of evolved EntNFSB-s1, 2-nitrobenzoic acid reduction with NADH; details: cofactor NADH; enzyme 1 uM
Chain of Enterobacter cloacae nitroreductase (EntNFSB) variant EntNFSB-s1, S40A/T41I/F124A, SEQ ID NO: 38 (Q01234 whole entry S40A/T41I/F124A): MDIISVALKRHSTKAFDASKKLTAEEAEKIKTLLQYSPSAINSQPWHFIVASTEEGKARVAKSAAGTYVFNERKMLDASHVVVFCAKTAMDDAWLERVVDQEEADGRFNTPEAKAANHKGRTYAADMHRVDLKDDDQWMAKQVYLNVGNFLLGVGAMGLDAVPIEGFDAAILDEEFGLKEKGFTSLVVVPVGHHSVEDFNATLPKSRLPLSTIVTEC

[3] = target: Enterobacter cloacae nitroreductase (EntNFSB) variant EntNFSB-s2, T41L/Y68L/F124L, SEQ ID NO: 40 (Enterobacter cloacae, UniProt Q01234, F124L/T41L/Y68L); format: biochemical; details: cofactor NADH; enzyme 1 uM
Chain of Enterobacter cloacae nitroreductase (EntNFSB) variant EntNFSB-s2, T41L/Y68L/F124L, SEQ ID NO: 40 (Q01234 whole entry T41L/Y68L/F124L): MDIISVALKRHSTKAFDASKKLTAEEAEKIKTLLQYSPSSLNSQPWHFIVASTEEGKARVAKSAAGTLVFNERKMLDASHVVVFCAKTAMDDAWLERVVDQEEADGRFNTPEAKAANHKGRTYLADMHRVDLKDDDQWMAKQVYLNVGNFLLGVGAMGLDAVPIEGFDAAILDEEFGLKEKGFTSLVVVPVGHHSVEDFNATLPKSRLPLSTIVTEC

AL cells = assay: 1H NMR analysis of fermentation broth of anaerobic cultures; format: cell-based, Escherichia coli; details: no exogenous substrate
LS5 strain = assay: Metabolic complementation (anaerobic growth) of quadruple mutant; format: cell-based, Escherichia coli
Protocol: (§1) The LS1 mutant strain and the parental BW25113 strain were transformed with the desired plasmid and overnight pre-cultures were grown aerobically in 15 mL Falcon tubes with M9 media (0.4% glucose). These pre-cultures were used to inoculate 10 mL Hungate tubes with M9 medium (0.4% glucose) supplemented with 100 μg/mL ampicillin, 1 mM IPTG and with or without the specific substrate of the dehydrogenase under anaerobic conditions at 37° C. Metabolic complementation was assessed by measuring the optical density at 600 nm every two hours during daytime.
Since in the triple mutants the non-deleted transhydrogenase could still be supporting anaerobic growth under anaerobic fermentation conditions when complemented with an NADPH-dependent oxidoreductase by generating oxidized NAD, the inventors generated a quadruple mutant where adhE, ldhA, sthA and pntA genes were deleted (LS5 strain, FIG. 11).

[4] = tested on: LS1 strain (ΔadhE ΔldhA double mutant) cells; assay: Metabolic complementation (anaerobic growth recovery) of LS1/AL strain; format: cell-based, Escherichia coli; details: LS1, no exogenous substrate
Protocol: as §1

Compound: CC1=NCCC1 [2-methylpyrroline, 2-methyl-1-pyrroline]
- Km [1]: 41.8 mM
- kcat [1]: 1.993 s⁻¹

Compound: O=C(O)c1ccccc1[N+](=O)[O-] [2-nitrobenzoic acid]
- kcat [2]: 0.0195 s⁻¹

Compound: O=[N+]([O-])c1ccc(CO)cc1 [4-nitrobenzyl alcohol]
- Km [3]: 1.11 mM
- kcat [3]: 0.0725 s⁻¹

Compound: pLS1: pUC19 with ADH NADH-dependent from Escherichia coli (adhE)
- Acetate concentration (AL cells): 12.1
- Ethanol concentration (AL cells): 13.8
- Formate concentration (AL cells): 20.7
- Lactate concentration (AL cells): 0
- Succinate concentration (AL cells): 5.2
- anaerobic growth (LS5 strain): anaerobic growth is restored
- anaerobic growth recovery [4]: restoration of ability to grow anaerobically
